“Also recorded” adds a separate entry of the source.

Series [1] has as its target T1, HCV NS5B (Hepatitis C virus genotype 1b, UniProt P26663). In words: Nucleotide incorporation assay using end-labeled primers. In kind it is biochemical. As to conditions: 5 μM template, 10 μM end-labeled primer, 100 μM NTP, 30° C. for 30 min. Here is the method:
Nucleotide incorporation assay using end-labeled primers. A standard nucleotide incorporation reaction was performed in a 20 μl volume, containing 50 mM HEPES (pH 7.3), 10 mM β-mecaptoethanol, 50 mM NaCl, 5 mM MgCl2, 5 μM of template RNA, 10 μM of end-labeled primer, 3 to 5 μM of polymerase protein and 100 μM of NTP substrate, as described. Single nucleotide incorporation by HCV replicase was tested using radiolabeled diguanylate (^33pGpG) as a primer and three RNA templates corresponding to SEQ ID NO: 11 [(ACC)7], SEQ ID NO: 9 [(tJCC)7], and SEQ ID NO: 10 [(GCC)7]. Reactions involved ^33pGpG primer alone and with (1) (ACC)7 RNA as the template plus either no NTP, 100 μM UTP or 100 μM ATP, (2) (UCC)7 RNA as the template plus either no NTP, 100 μM ATP or 100 μM CTP, and (3) (GCC)7 RNA as the template plus either no NTP, 100 μM CTP or 100 μM ATP. To show the efficiency of guanylate primers of different length in priming nucleotide incorporation, four template-primer pairs were tested in a standard primer-extension assay: […] (SEQ ID NO: 10)/^33pGG; […] (SEQ ID NO: 12)/^33pGGG; […],(SEQ ID NO-13)/^33pGGGG (SEQ ID NO: 32); and […] (SEQ ID NO: 7)/^33pGpqGG (SEQ ID NO: 33). Reactions were performed using 100 μM of CTP or without a nucleotide substrate.
Reactions contained (UCC)7 alone, (UCC)7 plus 100 μM of ATP, (UCC)6AAA alone, or (UCC)6AAA plus 100 μM of ATP. In addition, RNAs of SEQ ID NOS: 11, 30 and 31 were tested for single-nucleotide incorporation with ^33pGpG as the primer.
To show the minimum length requirement for a template RNA of the invention RNA templates of decreasing length (21 to 4-nt), e.g., SEQ ID NOS: 8 and 14-20 were tested for the ability to direct single-nucleotide incorporation using ^33pGpG as the primer. All reactions contained 100 μM of ATP and one template RNA. Multiple cycles of nucleotide incorporation were performed using a 10-mer RNA and ^33pGpG as the primer. Reactions contained either 100 μM of ATP alone, or 100 μM each of ATP and CTP, or 100 μM each of ATP, CTP and GTP. The reactions were quenched at different times from 15 to 900 seconds.
Various dinucleotide primers for RNA synthesis and nucleotide incorporation using HCV 3′ terminal sequences as template were used. The following RNA templates were used: 5′ AAAAAACAGUCC 3′ (SEQ ID NO: 17), 5′ AAAACAGUGC 3′ (SEQ ID NO: 21), 5′ AAAAAACAGUCG 3′ (SEQ ID NO: 22), 5′ AAAAAACAGUGG 3′ (SEQ ID NO: 23), 5′ AAAAAACAGUAC 3′ (SEQ ID NO: 24), 5′ AAAAAACAGUCA 3′ (SEQ ID NO: 25), which differ by two residues at the 3′ terminal positions. Dinucleotide primers, ^33pGpG, ^33pGpC, ^33pCpG, ^33pCpC, ^33pGpU and ^33pUpG, were paired with respective templates in the absence or presence of 100 μM ATP substrate. RNA templates, 3′(+) and 3′(−), consisted of the 3′ terminal sequences of positive-strand and negative-strand HCV genome, respectively. Primers ^33pApC and ^33pGpC were used for 3′(+) and 3′(−) RNA, respectively, in the absence of nucleotide substrate and in the presence of ATP or CTP.
Reaction mixtures were incubated at 30° C. for 30 min, followed by phenol and chloroform extraction and ethanol precipitation in the presence of glycogen carrier. Product was dissolved in a urea/TBE sample buffer (Novex, San Diego, Calif.) and separated on a 23 to 25% PAGE/6 M Urea/1× TBE gel. The gel was then covered with plastic wrap and exposed to an X-ray film.

Series [2] deals with T1, HCV NS5B. In kind it is biochemical.
Target sequence in this assay (P26663 2420-2989 limits assumed): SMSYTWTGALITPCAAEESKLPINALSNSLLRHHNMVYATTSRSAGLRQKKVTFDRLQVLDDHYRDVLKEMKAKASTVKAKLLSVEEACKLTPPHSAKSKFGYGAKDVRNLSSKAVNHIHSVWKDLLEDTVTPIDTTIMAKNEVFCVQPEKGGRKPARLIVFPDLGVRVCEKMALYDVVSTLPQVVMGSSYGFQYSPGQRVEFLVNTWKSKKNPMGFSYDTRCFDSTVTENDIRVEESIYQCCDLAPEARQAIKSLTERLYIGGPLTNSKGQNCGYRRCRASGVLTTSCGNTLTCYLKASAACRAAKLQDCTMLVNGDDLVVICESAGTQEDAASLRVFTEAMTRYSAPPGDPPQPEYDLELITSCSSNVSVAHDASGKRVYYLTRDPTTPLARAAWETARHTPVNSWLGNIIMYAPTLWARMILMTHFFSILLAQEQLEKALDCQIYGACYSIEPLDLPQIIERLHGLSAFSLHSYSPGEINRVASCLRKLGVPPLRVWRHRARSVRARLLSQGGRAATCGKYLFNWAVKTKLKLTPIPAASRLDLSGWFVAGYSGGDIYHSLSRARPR
In the next series the target is poliovirus 3D RdRp (Poliovirus type 1, UniProt P03300). Particulars: cited from earlier work.
The target in another series is HCV NS5B replicase (Hepatitis C virus genotype 1b, UniProt P26663). As to conditions: cited from earlier work.
Chain of HCV NS5B replicase (P26663 2420-3010 limits assumed): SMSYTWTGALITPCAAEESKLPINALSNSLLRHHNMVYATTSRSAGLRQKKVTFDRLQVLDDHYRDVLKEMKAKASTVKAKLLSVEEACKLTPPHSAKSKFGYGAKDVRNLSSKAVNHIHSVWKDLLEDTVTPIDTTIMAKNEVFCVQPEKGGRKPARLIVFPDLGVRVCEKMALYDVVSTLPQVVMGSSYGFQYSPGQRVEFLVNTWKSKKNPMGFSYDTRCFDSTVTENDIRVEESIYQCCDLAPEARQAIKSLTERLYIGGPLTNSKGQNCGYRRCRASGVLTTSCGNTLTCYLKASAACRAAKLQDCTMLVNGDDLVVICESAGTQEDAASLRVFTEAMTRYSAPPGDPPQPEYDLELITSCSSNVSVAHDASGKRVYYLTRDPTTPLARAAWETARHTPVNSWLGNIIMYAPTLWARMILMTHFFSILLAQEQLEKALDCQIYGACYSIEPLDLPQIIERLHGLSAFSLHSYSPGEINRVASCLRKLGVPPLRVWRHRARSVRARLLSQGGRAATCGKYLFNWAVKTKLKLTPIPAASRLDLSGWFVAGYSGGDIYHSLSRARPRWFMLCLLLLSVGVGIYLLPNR

Chain of poliovirus 3D RdRp (P03300 1749-2209 limits assumed): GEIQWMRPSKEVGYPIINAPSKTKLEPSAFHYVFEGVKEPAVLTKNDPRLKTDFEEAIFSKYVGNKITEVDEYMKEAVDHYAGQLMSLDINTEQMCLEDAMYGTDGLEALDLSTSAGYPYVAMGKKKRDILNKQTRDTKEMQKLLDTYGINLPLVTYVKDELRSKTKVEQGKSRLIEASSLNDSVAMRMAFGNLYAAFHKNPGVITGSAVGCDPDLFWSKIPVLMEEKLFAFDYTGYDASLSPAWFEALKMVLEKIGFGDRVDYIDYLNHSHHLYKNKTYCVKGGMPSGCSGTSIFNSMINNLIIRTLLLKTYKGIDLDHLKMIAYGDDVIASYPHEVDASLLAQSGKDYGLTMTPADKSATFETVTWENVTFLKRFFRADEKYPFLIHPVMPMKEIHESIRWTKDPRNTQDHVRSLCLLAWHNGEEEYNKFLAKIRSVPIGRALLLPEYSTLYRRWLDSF

For “5′ ACCACCACCACCACCACCACC 3′ (ACCACCACCACCACCACCACC; RNA, backbone not given here) [(ACC)7]”, the “nucleotide incorporation (extension of end-labeled primer)” value (shortened to “nucleotide incorporation”) with HCV NS5B [1] is reported as “single nucleotide incorporation was observed only when UTP was used”. The same measure, in the same setting: with “5′ AUC AGG GGG CUG GC 3′ (AUCAGGGGGCUGGC; RNA, backbone not given here) [SEQ ID NO: 27, 3′ terminus of HCV negative-strand RNA genome]” the entry was “single-nucleotide incorporation was detected; also recorded: higher overall activity”; with “5′ C ACCACCACCACCACCACCAC 3′ (CACCACCACCACCACCACCAC; RNA, backbone not given here) [SEQ ID NO: 31]”, “significant reduction in activity”. Same read-out and setting: with “5′ CC ACC ACC ACC ACC ACC ACCA 3′ (CCACCACCACCACCACCACCA; RNA, backbone not given here) [SEQ ID NO: 30]” the entry was “significant reduction in activity”. With “5′ GCA UGG GCC C 3′ [sym/sub RNA, reference compound]”, the “extension/utilization of end-labeled RNA” value at HCV NS5B [2] is listed as “no primer extension was observed”. As to “5′ GCCGCCGCCGCCGCCGCCGCC 3′ (GCCGCCGCCGCCGCCGCCGCC; RNA, backbone not given here) [(GCC)7]”, the “nucleotide incorporation” value in the series with HCV NS5B [1] is recorded as “only the correct nucleotide, ATP or CTP, resulted in primer extension”. As to “5′ UCCUCCUCCUCCUCCUCCUCC 3′ (UCCUCCUCCUCCUCCUCCUCC; RNA, backbone not given here) [(UCC)7]”, the “nucleotide incorporation” value with HCV NS5B [1] is “only the correct nucleotide, ATP or CTP, resulted in primer extension”. Still for that read-out and setting: with “5′ UCU GCA GAU CAU GU 3′ (UCUGCAGAUCAUGU; RNA, backbone not given here) [SEQ ID NO: 26, 3′ terminus of HCV positive-strand RNA genome]” the entry was “single-nucleotide incorporation was detected”. As to `CN1C(=O)[C@]23CC4=CC=C[C@H](O)[C@H]4N2C(=O)[C@@]1(CO)SS3` [Gliotoxin, gliotoxin], the “inhibition of poliovirus 3D RdRp” value on poliovirus 3D RdRp is reported as “known poliovirus 3D RdRp inhibitor”. The “inhibition of HCV NS5B replicase” value at HCV NS5B replicase is recorded as “inhibits HCV NS5B replicase in a dose dependent manner”.

GGG [^33pGGG]: the “nucleotide incorporation” value on HCV NS5B [1] is listed as “supported nucleotide incorporation with the highest efficiency”.

With “GGGG (5' 33P label, further chemistry not given here) [^33pGGGG]”, in the series with HCV NS5B [1], the “nucleotide incorporation” value is recorded as “detrimental to the activity”.

With “GGGGG (RNA, backbone not given here; further chemistry not fully specified) [^33pGGGGG]”, in the series with HCV NS5B [1], the “nucleotide incorporation” value is “detrimental to the activity”. The same measure, in the same setting: with pGpC [GC] the entry was “capable of priming nucleotide (AMP) incorporation”. pGpG [GG]: the “nucleotide incorporation” value on HCV NS5B [1] was “capable of priming nucleotide (AMP) incorporation”; on HCV NS5B [1] (listed as 33pGG), “supported nucleotide incorporation with the highest efficiency”.

(Values after US6967075B2 (priority 2000, dated 2005).)
